Values quoted from earlier work as cited in PMC6270305 (Molecules, 2013).
Read-outs that look alike come from different tables or passages of the source.

[1] = human serum, peptide described in the preliminary communication

t1/2 (human serum half-life) (human, serum) [h] | Compound | t1/2 (human serum half-life) [1] [h]
 | [L-Msa11,D-Trp8]-SRIF [Peptide 6] | 41
 | [L-Msa7]-SRIF [Peptide 2] | 5.2
25 | Cc1cc(C)c(C[C@@H]2NC(=O)[C@H](Cc3ccccc3)NC(=O)[C@H](CC(N)=O)NC(=O)[C@H](CCCCN)NC(=O)[C@@H](NC(=O)CNC(=O)[C@H](C)N)CSSC[C@@H](C(=O)O)NC(=O)[C@H](CO)NC(=O)[C@H]([C@@H](C)O)NC(=O)[C@H](Cc3ccccc3)NC(=O)[C@H]([C@@H](C)O)NC(=O)[C@H](CCCCN)NC(=O)[C@@H](Cc3c[nH]c4ccccc34)NC2=O)c(C)c1 [Peptide 5, [L-Msa7,D-Trp8]-SRIF] | 
 | [L-Msa6,D-Trp8]-SRIF [Peptide 4] | 26
